System: EGFR mRNA
Experiment: siEGFR knock down of EGFR mRNA expression
Format: cell-based
Details: 50 picomolar concentration of siRNA; expression knocked down to this level
Description: Nanoparticles were designed to specifically target EGFR-positive non-small cell lung cancer (NSCLC) cells and deliver siRNA to hinder EGFR expression. The nanoparticles have 4 primary components (see FIG. 1): • 1. A biocompatible cationic mucic acid polymer (cMAP) that encapsulates siRNA with a charge ratio (+/−) of 1; • 2. 5-nitrophenyl boronic acid-mPEG (5-nPBA-mPEG), which binds to cMAP through boronic acids' interaction with diols present on cMAP, to form a coating of methoxy-polyethylene glycol (mPEG) in order to ensure particle stability in serum; • 3. Cetuximab, the targeting agent for the particle, also attached to cMAP through a 5-nitrophenyl boronic acid-PEG entity; and • 4. siRNA against EGFR (siEGFR), able to knock down EGFR mRNA expression to 20% at a 50 picomolar concentration (see SEQ ID NO: 1). The resulting nanoparticles are cetuximab-conjugated cMAP-siEGFR nanoparticles.

siEGFR: siRNA against EGFR, SEQ ID NO: 1 bound to SEQ ID NO: 2 (chain 1 UAAUUUCCAAAUUCCCAAGGAC; chain 2 CCUUGGGAAUUUGGAAAUUAUA; listed as RNA, chemistry not given here)
EGFR mRNA expression after knock down: 20%
